Results from paper PMC4425807, “Investigating interactions between phentermine, dexfenfluramine, and 5-HT2C agonists, on food intake in the rat” (Psychopharmacology, 2014).
Read-outs that look alike come from different tables or passages of the source. Marks after values point to notes of the source that are not given here.

Legend:
food intake in the rat = assay: Food intake in food-deprived rats: single-drug dose-responses and isobolographic analysis; type: in vivo; conditions: PO, 18 h food-deprived rat, 30 min intake measured 1 h after drug; from logarithmic regressions; read-out: ED50, inhibition of food intake
Method: Male Sprague–Dawley rats (Harlan, San Diego, CA) weighing 250–350 g were used for behavioural studies. Upon arrival at the test facility, animals were triple housed within a holding room controlled for humidity, temperature, and light (lights off 1800–0600 hours). Rats received food (2018SX Teklad Rodent Diet) and water ad libitum unless stated otherwise. Over the course of all studies, rats were re-used up to four times, with at least one week of washout between tests. Rats were assigned to treatment groups pseudo-randomly from test to test. One week prior to initial drug testing, all rats were subject to a single food intake test which was identical to all subsequent drug tests, except that all rats received vehicle administration. Group size for all studies, including brain sampling, was eight.
Eighteen hours prior to food intake testing (1600 hours), food was removed from home cages. On the next day, animals were weighed and placed into cages with grid floors at 1000 hours, and allowed to acclimate to these cages for a 90-min period with free access to water and no food. At 1130 hours, rats were injected with compounds via oral gavage. Thirty minutes after injection (1200 hours), animals were allowed access to food. Food was then weighed at 30 min after food exposure (1 h after drug administration). Upon test conclusion, rats were returned to home cages with ad libitum access to food and water.
Doses were selected based upon previous in-house experience with these compounds and ascended in twofold steps. Two subsequent studies were run for each isobologram, with dose–responses of each compound pair run in combination with a fixed, low dose of the other (phentermine 1 mg/kg; AR630 1 mg/kg; dexfenfluramine 0.5 mg/kg; lorcaserin 1 mg/kg). To approximate the true experimental errors in these experiments, a bootstrapping with replacement approach was used (Huber [1981]; Launer and Wilkinson [1979]) in which five data sets were generated from random samples of the measured data points for both the individual dose–responses and for each drug/dose combination. […] A line of additivity with confidence limits was then drawn between the dose–responses of each compound alone.

[1] = Brain drug concentrations 60 min after single oral dose (LC-MS/MS); type: in vivo, rat; conditions: for concentration at 60 min: brain
Method: In vivo methods employed for pharmacokinetic studies were identical to those described for food intake studies except that after dosing, rats were not placed into new cages with grid floors. At 60 min after dosing (and 30 min after food access), rats were anesthetized with isoflurane, blood was collected via cardiac puncture, and brains were removed from the cranium. Blood samples were dispensed into sodium heparinized vials and capped and stored at 4 °C. Plasma was separated from formed elements in blood by centrifugation (10 min at 3,000×g) and frozen. Brains were rinsed with ice-cold phosphate-buffered saline, blotted dry, weighed, and frozen. Plasma and brain samples were stored at −80 °C prior to bioanalytical analysis.
Brain samples were thawed on ice, placed into 50 mL plastic conical tubes, and two volumes of purified water/gram of brain was added. Brains were homogenized using a mechanical variable speed tissue homogenizer; 50 μL of brain homogenate was transferred to a 1-mL plastic tube. A volume of acetonitrile (200 μL) containing internal standard was added to brain homogenate, mixed by vortex, and centrifuged (15 min at 3,700 rpm). […] Supernatants were analysed for lorcaserin, AR630, phentermine, dexfenfluramine, and the major metabolite of dexfenfluramine, norfenfluramine. Compound concentrations were determined using a LC-MS/MS method. Analytes were separated by reverse phase chromatography (Kinetex 3 × 30 mm, C18, 2.6 μm, 100 Å, HPLC Column, Phenomenex, Torrance, CA) using a binary gradient on a Shimadzu LC system (Shimadzu Corp., Columbia, MD). The gradient consisted of 0.1 % formic acid in water and 0.1 % formic acid in acetonitrile with a flow rate of 650 μL/min.

5-HT2C [2] = biological target: T1, 5-HT2C (Homo sapiens, UniProt P28335); assay: Functional activity at 5-HT2C; type: biochemical; conditions: internally generated data
T1 sequence (P28335 33-458): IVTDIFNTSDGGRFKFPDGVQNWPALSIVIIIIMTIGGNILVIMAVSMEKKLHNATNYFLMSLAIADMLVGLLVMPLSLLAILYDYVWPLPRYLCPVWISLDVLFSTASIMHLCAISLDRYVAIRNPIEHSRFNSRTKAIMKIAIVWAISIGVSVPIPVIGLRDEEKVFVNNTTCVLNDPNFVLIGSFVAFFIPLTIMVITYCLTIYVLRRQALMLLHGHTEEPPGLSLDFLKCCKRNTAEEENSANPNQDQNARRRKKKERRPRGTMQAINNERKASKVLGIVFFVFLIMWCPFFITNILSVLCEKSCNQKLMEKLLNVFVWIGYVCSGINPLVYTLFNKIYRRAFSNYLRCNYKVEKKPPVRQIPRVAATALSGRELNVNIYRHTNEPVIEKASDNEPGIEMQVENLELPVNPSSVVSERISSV

5-HT2A [3] = biological target: T2, 5-HT2A (Homo sapiens, UniProt P28223); assay: Functional activity at 5-HT2A; type: biochemical; conditions: internally generated data
5-HT2B [4] = biological target: T3, 5-HT2B (Homo sapiens, UniProt P41595); assay: Functional activity at 5-HT2B; type: biochemical; conditions: internally generated data
5-HT2C [5] = biological target: T1, 5-HT2C; assay: 125I-DOI binding at 5-HT2C; conditions: internally generated data
5-HT2A [6] = biological target: T2, 5-HT2A; assay: 125I-DOI binding at 5-HT2A; conditions: internally generated data
5-HT2B [7] = biological target: T3, 5-HT2B; assay: 125I-DOI binding at 5-HT2B; conditions: internally generated data
[8] = when administered alone; cited from earlier work
[9] = combining topiramate with phentermine, humans; ref Qsymia Drug Label information; cited from earlier work
[10] = read-out: intrinsic activity (IA)

T2 sequence (P28223 whole entry): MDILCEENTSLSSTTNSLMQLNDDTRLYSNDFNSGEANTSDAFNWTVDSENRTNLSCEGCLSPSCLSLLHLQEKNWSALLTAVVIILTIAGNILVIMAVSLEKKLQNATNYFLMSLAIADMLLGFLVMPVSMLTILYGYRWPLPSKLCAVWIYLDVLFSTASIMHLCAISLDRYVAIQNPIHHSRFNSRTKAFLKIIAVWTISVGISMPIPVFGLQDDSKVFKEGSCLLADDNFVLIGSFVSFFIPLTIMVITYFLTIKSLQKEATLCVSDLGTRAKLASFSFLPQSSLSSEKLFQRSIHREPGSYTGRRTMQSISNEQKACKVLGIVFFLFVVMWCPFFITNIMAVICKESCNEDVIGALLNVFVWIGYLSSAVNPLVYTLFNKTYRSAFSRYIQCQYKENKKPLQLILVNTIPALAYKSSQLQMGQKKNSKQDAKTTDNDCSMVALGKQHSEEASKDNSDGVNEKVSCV
T3 sequence (P41595 whole entry, species assumed): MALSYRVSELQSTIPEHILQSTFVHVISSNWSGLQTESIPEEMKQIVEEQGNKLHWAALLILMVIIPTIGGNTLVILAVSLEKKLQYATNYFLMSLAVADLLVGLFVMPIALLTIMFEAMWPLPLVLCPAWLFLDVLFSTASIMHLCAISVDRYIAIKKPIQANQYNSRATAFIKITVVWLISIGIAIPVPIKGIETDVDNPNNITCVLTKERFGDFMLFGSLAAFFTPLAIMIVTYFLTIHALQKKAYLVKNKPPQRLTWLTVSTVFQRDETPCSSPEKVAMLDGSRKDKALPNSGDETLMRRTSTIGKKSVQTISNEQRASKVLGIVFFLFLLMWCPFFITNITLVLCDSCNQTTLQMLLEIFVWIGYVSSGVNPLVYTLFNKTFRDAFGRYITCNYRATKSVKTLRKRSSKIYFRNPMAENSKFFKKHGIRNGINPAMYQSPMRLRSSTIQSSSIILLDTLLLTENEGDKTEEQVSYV

C[C@@H]1CNCCN1c1cc(Cl)ccc1F [AR630]
ED50 (food intake in the rat): 4.25 mg/kg
Fold-change in brain concentration, combination vs alone ([1]; AR630 1 mg/kg PO with phentermine 1 mg/kg, 60 min, rat): 1.12
concentration at 60 min ([1]; Sprague-Dawley, rat, oral, AR630 1 mg/kg PO with phentermine 1 mg/kg, 60 min, rat, mean ± SEM, read-out: Brain concentration, combination): 92 ± 25 ng/g
concentration at 60 min ([1]; Sprague-Dawley, rat, po, 1 mg/kg, AR630 1 mg/kg PO alone, 60 min, rat, mean ± SEM, read-out: Brain concentration, alone): 82 ± 14 ng/g
EC50 (5-HT2C [2]): 10 nM
Emax (5-HT2C [2]; [10]): 100%
EC50 (5-HT2A [3]): 400 nM
Emax (5-HT2A [3]; [10]): 60%
EC50 (5-HT2B [4]): 1000 nM
Emax (5-HT2B [4]; [10]): < 10%
Ki (5-HT2C [5]): 4 nM
Ki (5-HT2A [6]): 120 nM
Ki (5-HT2B [7]): 100 nM

CCN[C@@H](C)Cc1cccc(C(F)(F)F)c1 [Dexfenfluramine, (S)+-fenfluramine]
ED50 (food intake in the rat): 1.44 mg/kg
concentration at 60 min ([1]; Sprague-Dawley, rat, oral, 0.5 mg/kg, dexfenfluramine 0.5 mg/kg PO alone, 60 min, rat, mean ± SEM, read-out: Brain concentration, alone): 130 ± 13 ng/g
concentration at 60 min ([1]; Sprague-Dawley, rat, oral, dexfenfluramine 0.5 mg/kg PO with phentermine 1 mg/kg, 60 min, rat, mean ± SEM, read-out: Brain concentration, combination): 141 ± 19 ng/g
Fold-change in brain concentration, combination vs alone ([1]; dexfenfluramine 0.5 mg/kg PO with phentermine 1 mg/kg, 60 min, rat): 1.08

C[C@H]1CNCCc2ccc(Cl)cc21 [Lorcaserin]
ED50 (food intake in the rat): 1.98 mg/kg
concentration at 60 min ([1]; Sprague-Dawley, rat, oral, 1 mg/kg, lorcaserin 1 mg/kg PO alone, 60 min, rat, mean ± SEM, read-out: Brain concentration, alone): 1380 ng/g
concentration at 60 min ([1]; Sprague-Dawley, rat, oral, lorcaserin 1 mg/kg PO with phentermine 1 mg/kg, 60 min, rat, mean ± SEM, read-out: Brain concentration, combination): 1440 ng/g
Fold-change in brain concentration, combination vs alone ([1]; lorcaserin 1 mg/kg PO with phentermine 1 mg/kg, 60 min, rat): 1.05

CC(N)Cc1cccc(C(F)(F)F)c1 (centres unmarked) [Norfenfluramine, norfenfluramine]
brain concentration of metabolite relative to parent dexfenfluramine ([1]; after dexfenfluramine PO, 60 min, rat): approximately sixfold
Brain concentration, alone ([1]; metabolite norfenfluramine after dexfenfluramine 0.5 mg/kg PO alone, 60 min, rat, mean ± SEM): 805 ± 50 ng/g
Fold-change in brain concentration, combination vs alone ([1]; metabolite norfenfluramine after dexfenfluramine 0.5 mg/kg PO with phentermine 1 mg/kg, 60 min, rat): 0.94
Brain concentration, combination ([1]; metabolite norfenfluramine after dexfenfluramine 0.5 mg/kg PO with phentermine 1 mg/kg, 60 min, rat, mean ± SEM): 760 ± 27 ng/g

CC(C)(N)Cc1ccccc1 [Phentermine]
ED50 (food intake in the rat): 2.45 mg/kg
Kp at 60 min ([1]; Sprague-Dawley, brain/plasma, oral, phentermine dosed alone or in the various combinations, rat (data not shown), read-out: brain/plasma ratio): ~13
concentration at 60 min ([1]; Sprague-Dawley, rat, oral, 1 mg/kg, phentermine 1 mg/kg PO alone, 60 min, rat, AR630 study, mean ± SEM, read-out: Brain concentration, alone): 226 ± 32 ng/g
concentration at 60 min ([1]; Sprague-Dawley, rat, oral, 1 mg/kg, phentermine 1 mg/kg PO alone, 60 min, rat, dexfenfluramine study, mean ± SEM, read-out: Brain concentration, alone): 298 ± 29 ng/g
concentration at 60 min ([1]; Sprague-Dawley, rat, oral, 1 mg/kg, phentermine 1 mg/kg PO alone, 60 min, rat, lorcaserin study, mean ± SEM, read-out: Brain concentration, alone): 298 ± 29 ng/g
concentration at 60 min ([1]; Sprague-Dawley, rat, oral, phentermine 1 mg/kg PO with AR630 1 mg/kg, 60 min, rat, mean ± SEM, read-out: Brain concentration, combination): 866 ± 120 ng/g
concentration at 60 min ([1]; Sprague-Dawley, rat, oral, phentermine 1 mg/kg PO with dexfenfluramine 0.5 mg/kg, 60 min, rat, mean ± SEM, read-out: Brain concentration, combination): 787 ± 57 ng/g
concentration at 60 min ([1]; Sprague-Dawley, rat, oral, phentermine 1 mg/kg PO with lorcaserin 1 mg/kg, 60 min, rat, mean ± SEM, read-out: Brain concentration, combination): 335 ± 18 ng/g
Fold-change in brain concentration, combination vs alone ([1]; phentermine 1 mg/kg PO with AR630 1 mg/kg, 60 min, rat): 3.80**
Fold-change in brain concentration, combination vs alone ([1]; phentermine 1 mg/kg PO with AR630 1 mg/kg, 60 min, rat, listed as phentermine): 3.8
Fold-change in brain concentration, combination vs alone ([1]; phentermine 1 mg/kg PO with dexfenfluramine 0.5 mg/kg, 60 min, rat): 2.60**
Fold-change in brain concentration, combination vs alone ([1]; phentermine 1 mg/kg PO with dexfenfluramine 0.5 mg/kg, 60 min, rat, listed as phentermine): 2.6
Fold-change in brain concentration, combination vs alone ([1]; phentermine 1 mg/kg PO with lorcaserin 1 mg/kg, 60 min, rat): 1.12
Fold-change in brain concentration, combination vs alone ([1]; phentermine 1 mg/kg PO with lorcaserin 1 mg/kg, 60 min, rat, listed as phentermine): 1.1
fraction of dose excreted as unchanged phentermine in urine [8]: 70–80%
increase in phentermine area under the curve [9]: 42%
